# Laboratory results taken from US8680108B2, “Substituted fused aryl and heteroaryl derivatives as PI3K inhibitors” (Incyte Corporation, priority 2009, dated 2014).
# Where a name gives a salt, the structure may show the parent alone.
# Biological target: T1, PI3Kδ (p110δ/p85α) (Homo sapiens, UniProt O00329)
# T1 construct: purchased Millipore (Bedford, Mass.)
# Test: PI3Kδ scintillation proximity assay
# Assay type: biochemical
# Conditions: not given
# Text: Materials: [γ-^33P]ATP (10 mCi/mL) was purchased from Perkin-Elmer (Waltham, Mass.). Lipid kinase substrate, D-myo-Phosphatidylinositol 4,5-bisphosphate (PtdIns(4,5)P2)D (+)-sn-1,2-di-O-octanoylglyceryl, 3-O-phospho linked (PIP2), CAS 204858-53-7, was purchased from Echelon Biosciences (Salt Lake City, Utah). PI3Kδ (p110δ/p85α) was purchased from Millipore (Bedford, Mass.). ATP, MgCl2, DTT, EDTA, MOPS and CHAPS were purchased from Sigma-Aldrich (St. Louis, Mo.). Wheat Germ Agglutinin (WGA) YSi SPA Scintillation Beads was purchased from GE healthcare life sciences (Piscataway, N.J.).
# Assay: The kinase reaction was conducted in polystyrene 384-well matrix white plate from Thermo Fisher Scientific in a final volume of 25 μL. Inhibitors were first diluted serially in DMSO and added to the plate wells before the addition of other reaction components. The final concentration of DMSO in the assay was 0.5%. The PI3K assays were carried out at room temperature in 20 mM MOPS, pH 6.7, 10 mM MgCl2, 5 mM DTT and CHAPS 0.03%. Reactions were initiated by the addition of ATP, the final reaction mixture consisted of 20 μM PIP2, 20 μM ATP, 0.2 μCi [γ-^33P] ATP, 4 nM PI3Kδ. Reactions were incubated for 210 minutes and terminated by the addition of 40 μL SPA beads suspended in quench buffer: 150 mM potassium phosphate pH 8.0, 20% glycerol. 25 mM EDTA, 400 μM ATP. The final concentration of SPA beads is 1.0 mg/mL. After the plate sealing, plates were shaken overnight at room temperature and centrifuged at 1800 rpm for 10 minutes, the radioactivity of the product was determined by scintillation counting on Topcount (Perkin-Elmer). IC50 determination was performed by fitting the curve of percent control activity versus the log of the inhibitor concentration using the GraphPad Prism® 3.0 software.
# T1 sequence (O00329 whole entry): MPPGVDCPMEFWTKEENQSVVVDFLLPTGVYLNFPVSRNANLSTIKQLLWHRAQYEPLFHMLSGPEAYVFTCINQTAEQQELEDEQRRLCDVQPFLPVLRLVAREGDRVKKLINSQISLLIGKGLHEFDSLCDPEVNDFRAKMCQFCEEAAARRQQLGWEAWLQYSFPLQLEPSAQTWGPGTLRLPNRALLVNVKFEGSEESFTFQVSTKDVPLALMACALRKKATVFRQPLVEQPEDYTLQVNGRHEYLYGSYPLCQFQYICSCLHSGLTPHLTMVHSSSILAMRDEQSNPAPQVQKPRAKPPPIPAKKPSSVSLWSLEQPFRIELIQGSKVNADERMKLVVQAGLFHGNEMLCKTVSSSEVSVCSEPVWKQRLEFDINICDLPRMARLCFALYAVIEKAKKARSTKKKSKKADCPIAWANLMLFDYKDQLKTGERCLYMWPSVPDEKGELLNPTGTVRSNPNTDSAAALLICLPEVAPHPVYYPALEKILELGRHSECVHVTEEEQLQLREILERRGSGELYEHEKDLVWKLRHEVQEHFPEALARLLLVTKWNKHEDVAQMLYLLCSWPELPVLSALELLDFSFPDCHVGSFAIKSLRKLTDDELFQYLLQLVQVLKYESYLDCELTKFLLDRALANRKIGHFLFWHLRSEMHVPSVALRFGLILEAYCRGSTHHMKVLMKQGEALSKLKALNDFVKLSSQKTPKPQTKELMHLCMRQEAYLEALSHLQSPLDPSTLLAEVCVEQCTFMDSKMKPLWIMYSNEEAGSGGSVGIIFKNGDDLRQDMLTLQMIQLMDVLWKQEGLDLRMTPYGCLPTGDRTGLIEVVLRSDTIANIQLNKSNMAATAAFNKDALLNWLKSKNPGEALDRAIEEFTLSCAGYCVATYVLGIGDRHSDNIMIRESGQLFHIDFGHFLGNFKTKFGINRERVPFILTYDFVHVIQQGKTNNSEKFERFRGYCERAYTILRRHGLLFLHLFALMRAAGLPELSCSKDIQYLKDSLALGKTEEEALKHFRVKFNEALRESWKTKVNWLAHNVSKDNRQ
# T1 sequence (P27986 whole entry partner): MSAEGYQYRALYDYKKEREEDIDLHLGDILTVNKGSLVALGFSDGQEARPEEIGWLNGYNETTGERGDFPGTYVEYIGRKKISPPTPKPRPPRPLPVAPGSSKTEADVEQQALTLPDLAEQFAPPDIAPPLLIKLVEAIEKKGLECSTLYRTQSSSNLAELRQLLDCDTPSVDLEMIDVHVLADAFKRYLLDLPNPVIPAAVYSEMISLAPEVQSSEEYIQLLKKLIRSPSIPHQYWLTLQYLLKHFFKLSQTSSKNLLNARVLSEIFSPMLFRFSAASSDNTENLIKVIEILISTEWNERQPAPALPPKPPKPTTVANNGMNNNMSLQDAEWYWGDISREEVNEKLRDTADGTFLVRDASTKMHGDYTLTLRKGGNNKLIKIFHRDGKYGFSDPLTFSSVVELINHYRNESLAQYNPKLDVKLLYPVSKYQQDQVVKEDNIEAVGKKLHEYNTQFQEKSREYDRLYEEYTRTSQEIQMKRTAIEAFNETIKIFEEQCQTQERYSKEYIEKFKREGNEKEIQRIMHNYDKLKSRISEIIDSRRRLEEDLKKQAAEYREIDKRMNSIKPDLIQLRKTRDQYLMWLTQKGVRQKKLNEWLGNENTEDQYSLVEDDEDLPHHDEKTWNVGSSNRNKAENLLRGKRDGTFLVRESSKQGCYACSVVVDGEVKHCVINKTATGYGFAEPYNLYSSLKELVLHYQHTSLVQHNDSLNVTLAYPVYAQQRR
row,Compound,IC50
1,"CC(Nc1ncnc2[nH]cnc12)c1cc(Cl)c2ccnnc2c1-c1ccnc(F)c1 (stereo not drawn) [Example 42, N-{1-[5-Chloro-8-(2-fluoropyridin-4-yl)cinnolin-7-yl]ethyl}-9H-purin-6-amine]",500 to 1000 nM
2,"CC(Nc1ncnc2[nH]cnc12)c1cc(Cl)c2cccnc2c1N1CCC(C#N)CC1 (stereo not drawn) [Example 59, 1-{5-Chloro-7-[1-(9H-purin-6-ylamino)ethyl]quinolin-8-yl]piperidine-4-carbonitrile bis(trifluoroacetate)]",100 to 250 nM
3,"CC(Nc1ncnc2[nH]cnc12)c1cc(Cl)c2ccnnc2c1-c1ccccc1F (single isomer, unassigned) [Example 25, N-{1-[5-Chloro-8-(2-fluorophenyl)cinnolin-7-yl]ethyl}-9H-purin-6-amine]",> 1000 nM
4,"Cc1cc(C(=O)N2CCN(c3c(C(C)Nc4ncnc5[nH]cnc45)cc(Cl)c4cccnc34)CC2)no1 (stereo not drawn) [Example 99, N-[1-(5-Chloro-8-{4-[(5-methylisoxazol-3-yl)carbonyl]piperazin-1-yl}quinolin-7-yl)ethyl]-9H-purin-6-amine bis(trifluoroacetate)]",< 50 nM
5,"CC(Nc1ncnc2[nH]cnc12)c1cc(Cl)c2cn[nH]c2c1-c1cc(F)cc(F)c1 (stereo not drawn) [Example 106, N-{1-[4-Chloro-7-(3,5-difluorophenyl)-1H-indazol-6-yl]ethyl)-9H-purin-6-amine]",< 50 nM
6,"COc1ccc(-c2c(C(C)Nc3ncnc4[nH]cnc34)cc(Cl)c3ccnnc23)cc1F (stereo not drawn) [Example 41, N-{1-[5-Chloro-8-(3-fluoro-4-methoxyphenyl)cinnolin-7-yl]ethyl}-9H-purin-6-amine]",500 to 1000 nM
7,"CC(Nc1ncnc2[nH]cnc12)c1cc(Cl)c2cccnc2c1N1CCC(C#N)C1 (mixture of isomers) [Example 60, 1-{5-Chloro-7-[1-(9H-purin-6-ylamino)ethyl]quinolin-8-yl}pyrrolidine-3-carbonitrile bis(trifluoroacetate)]",100 to 250 nM
8,"CC(Nc1ncnc2[nH]cnc12)c1cc(Cl)c2cccnc2c1N1CCN(C(=O)C2CC2)CC1 (stereo not drawn) [Example 84, N-(1-{5-Chloro-8-[4-(cyclopropylcarbonyl)piperazin-1-yl]quinolin-7-yl}ethyl)-9H-purin-6-amine bis(trifluoroacetate)]",< 50 nM
9,"CC(Nc1ncnc2[nH]cnc12)c1cc(Cl)c2cccnc2c1N1CCC(CCO)CC1 (stereo not drawn) [Example 73, 2-(1-{5-Chloro-7-[1-(9H-purin-6-ylamino)ethyl]quinolin-8-yl}piperidin-4-yl)ethanol bis(trifluoroacetate)]",100 to 250 nM
10,"CC(Nc1ncnc2[nH]cnc12)c1cc(Cl)c2cccnc2c1N1CCC(NS(C)(=O)=O)CC1 (stereo not drawn) [Example 81, N-(1-{5-Chloro-7-[1-(9H-purin-6-ylamino)ethyl]quinolin-8-yl}piperidin-4-yl)methanesulfonamide bis(trifluoroacetate)]",100 to 250 nM
11,"CC(Nc1ncnc2[nH]cnc12)c1cc(F)c2ccnnc2c1-c1cc(F)cc(F)c1 (single isomer, unassigned) [Example 29, N-{1-[8-(3,5-difluorophenyl)-5-fluorocinnolin-7-yl]ethyl}-9H-purin-6-amine trifluoroacetate]",100 to 250 nM
12,"CC(Nc1ncnc2[nH]cnc12)c1cc(Cl)c2cccnc2c1N1CCN(C(=O)c2cccc(F)c2)CC1 (stereo not drawn) [Example 92, N-(1-{5-Chloro-8-[4-(3-fluorobenzoyl)piperazin-1-yl]quinolin-7-yl}ethyl)-9H-purin-6-amine bis(trifluoroacetate)]",100 to 250 nM
13,"Fc1cccc(-c2c(CNc3ncnc4[nH]cnc34)cc(Cl)c3ccnnc23)c1 [Example 31, N-{[5-Chloro-8-(3-fluorophenyl)cinnolin-7-yl]methyl}-9H-purin-6-amine trifluoroacetate]",500 to 1000 nM
14,"CC(Nc1ncnc2[nH]cnc12)c1cc(Cl)c2ccnnc2c1-c1cc(F)cc(F)c1 (single isomer, unassigned) [Example 24, N-{1-[5-Chloro-8-(3,5-difluorophenyl)cinnolin-7-yl]ethyl}-9H-purin-6-amine]",> 1000 nM
15,"CC(Nc1ncnc2[nH]cnc12)c1cc(Cl)c2conc2c1-c1cccc(F)c1 (stereo not drawn) [Example 104, N-{1-[4-Chloro-7-(3-fluorophenyl)-2,1-benzisoxazol-6-yl]ethyl}-9H-purin-6-amine]",< 50 nM
16,"COC(=O)N1CCN(c2c(C(C)Nc3ncnc4[nH]cnc34)cc(Cl)c3cccnc23)CC1 (stereo not drawn) [Example 85, Methyl 4-{5-Chloro-7-[1-(9H-purin-6-ylamino)ethyl]quinolin-8-yl}piperazine-1-carboxylatebis(trifluoroacetate)]",< 50 nM
17,"CC(Nc1ncnc2[nH]cnc12)c1cc(Cl)c2cccnc2c1N1CCC(O)(c2ccccc2)CC1 (stereo not drawn) [Example 49, 1-{5-Chloro-7-[1-(9H-purin-6-ylamino)ethyl]quinolin-8-yl}-4-phenylpiperidin-4-ol]",> 1000 nM
18,"COCCN1CCN(c2c(C(C)Nc3ncnc4[nH]cnc34)cc(Cl)c3cccnc23)CC1 (stereo not drawn) [Example 11, N-(1-{5-chloro-8-[4-(2-methoxyethyl)piperazin-1-yl]quinolin-7-yl]ethyl)-9H-purin-6-amine tris-trifluoroacetate]",< 50 nM
19,"CC(Nc1ncnc2[nH]cnc12)c1cc(Cl)c2cccnc2c1N1CCN(Cc2ccncc2)CC1 (stereo not drawn) [Example 74, N-(1-{5-Chloro-8-[4-(pyridin-4-ylmethyl)piperazin-1-yl]quinolin-7-yl}ethyl)-9H-purin-6-amine tris(trifluoroacetate)]",< 50 nM
20,"CC(Nc1ncnc2[nH]cnc12)c1cc(Cl)c2cn[nH]c2c1-c1cccc(F)c1 (stereo not drawn) [Example 105, N-{1-[4-Chloro-7-(3-fluorophenyl)-1H-indazol-6-yl]ethyl}-9H-purin-6-amine]",< 50 nM
21,"CC(Nc1ncnc2[nH]cnc12)c1cc(Cl)c2ccnnc2c1-c1cncc(F)c1 (single isomer, unassigned) [Example 34, N-{1-[5-chloro-8-(5-fluoropyridin-3-yl)cinnolin-7-yl]ethyl}-9H-purin-6-amine trifluoroacetate]",50 to 100 nM
22,"CC(Nc1ncnc2[nH]cnc12)c1cc(Cl)c2ccnnc2c1-c1ccccc1F (single isomer, unassigned) [Example 28, N-{1-[5-Chloro-8-(2-fluorophenyl)cinnolin-7-yl]ethyl}-9H-purin-6-amine]",< 50 nM
23,"CC(Nc1ncnc2[nH]cnc12)c1cc(Cl)c2cccnc2c1N1CCN(CC(=O)N(C)C)CC1 (stereo not drawn) [Example 90, 2-(4-{5-Chloro-7-[1-(9H-purin-6-ylamino)ethyl]quinolin-8-yl}piperazin-1-yl)-N,N-dimethylacetamide tris(trifluoroacetate)]",< 50 nM
24,"CC(Nc1ncnc2[nH]cnc12)c1cc(Cl)c2cccnc2c1N1CCN(C(=O)c2ccncc2)CC1 (stereo not drawn) [Example 98, N-{1-[5-Chloro-8-(4-isonicotinoylpiperazin-1-yl)quinolin-7-yl]ethyl}-9H-purin-6-amine tris(trifluoroacetate)]",< 50 nM
25,"Cc1noc(C)c1C(=O)N1CCN(c2c(C(C)Nc3ncnc4[nH]cnc34)cc(Cl)c3cccnc23)CC1 (stereo not drawn) [Example 100, N-[1-(5-Chloro-8-{4-[(3,5-dimethylisoxazol-4-yl)carbonyl]piperazin-1-yl}quinolin-7-yl)ethyl]-9H-purin-6-amine bis(trifluoroacetate)]",< 50 nM
26,"CC(Nc1ncnc2[nH]cnc12)c1cc(F)c2ccnnc2c1-c1cccc(F)c1 (single isomer, unassigned) [Example 20, N-{1-[5-Fluoro-8-(3-fluorophenyl)cinnolin-7-yl]ethyl}-9H-purin-6-amine]",< 50 nM
27,"CC(Nc1ncnc2[nH]cnc12)c1cc(Cl)c2ccncc2c1-c1cccc(F)c1 (stereo not drawn) [Example 56, N-{1-[5-Chloro-8-(3-fluorophenyl)isoquinolin-7-yl]ethyl}-9H-purin-6-amine]",< 50 nM
28,"CC(Nc1ncnc2[nH]cnc12)c1cc(Cl)c2cccnc2c1N1CCN(C(=O)N(C)C)CC1 (stereo not drawn) [Example 88, 4-{5-Chloro-7-[1-(9H-purin-6-ylamino)ethyl]quinolin-8-yl}-N,N-dimethylpiperazine-1-carboxamide bis(trifluoroacetate)]",< 50 nM
29,"CC(Nc1ncnc2[nH]cnc12)c1cc(Cl)c2cccnc2c1N1CCC(F)(F)CC1 (stereo not drawn) [Example 47, N-{1-[5-Chloro-8-(4,4-difluoropiperidin-1-yl)quinolin-7-yl]ethyl}-9H-purin-6-amine]",500 to 1000 nM

# Same assay, conditions: separated isomer, 1st peak
row,Compound,IC50
1,"CC(Nc1ncnc2[nH]cnc12)c1ccc2cccnc2c1-c1ccccc1F (stereo not drawn) [Example 7, N-{1-[8-(2-fluorophenyl)quinolin-7-yl]ethyl}-9H-purin-6-amine bis-trifluoroacetate]",> 1000 nM
2,"CC(Nc1ncnc2[nH]cnc12)c1cc(F)c2cccnc2c1-c1cccc(F)c1 (stereo not drawn) [Example 102, N-{1-[5-fluoro-8-(3-fluorophenyl)quinolin-7-yl]ethyl}-9H-purin-6-amine]",< 50 nM

# Same assay, conditions: separated isomer, 2nd peak
row,Compound,IC50
1,"CC(Nc1ncnc2[nH]cnc12)c1ccc2cccnc2c1-c1ccccc1F (stereo not drawn) [Example 7, N-{1-[8-(2-fluorophenyl)quinolin-7-yl]ethyl}-9H-purin-6-amine bis-trifluoroacetate]",500 to 1000 nM
2,"CC(Nc1ncnc2[nH]cnc12)c1cc(F)c2cccnc2c1-c1cccc(F)c1 (stereo not drawn) [Example 102, N-{1-[5-fluoro-8-(3-fluorophenyl)quinolin-7-yl]ethyl}-9H-purin-6-amine]",> 1000 nM
